Assay results as given in patent publication US7893063B2, “2,4,6-trisubstituted pyrimidines as phosphotidylinositol (PI) 3-kinase inhibitors and their use in the treatment of cancer” (AstraZeneca AB, priority 2004, dated 2011).

What was measured:
p110α Type Ia human PI3K = target: T1, p110α Type Ia human PI3K (Homo sapiens, UniProt P42336); test: In vitro enzyme assay (AlphaScreen), Test (a); type: biochemical; conditions: recombinant enzyme, PI(4,5)P2 substrate, ATP 4 μM, read-out: IC50 versus p110α Type Ia human PI3K
T1 construct: full length DNA of each of the p110α, p110β and p110δ Type Ia human PI3K p110 isoforms; 6-His; made in house; Grp1 PH domain in E. coli
T1 sequence (P42336 whole entry, the tested form may be a part, canonical isoform): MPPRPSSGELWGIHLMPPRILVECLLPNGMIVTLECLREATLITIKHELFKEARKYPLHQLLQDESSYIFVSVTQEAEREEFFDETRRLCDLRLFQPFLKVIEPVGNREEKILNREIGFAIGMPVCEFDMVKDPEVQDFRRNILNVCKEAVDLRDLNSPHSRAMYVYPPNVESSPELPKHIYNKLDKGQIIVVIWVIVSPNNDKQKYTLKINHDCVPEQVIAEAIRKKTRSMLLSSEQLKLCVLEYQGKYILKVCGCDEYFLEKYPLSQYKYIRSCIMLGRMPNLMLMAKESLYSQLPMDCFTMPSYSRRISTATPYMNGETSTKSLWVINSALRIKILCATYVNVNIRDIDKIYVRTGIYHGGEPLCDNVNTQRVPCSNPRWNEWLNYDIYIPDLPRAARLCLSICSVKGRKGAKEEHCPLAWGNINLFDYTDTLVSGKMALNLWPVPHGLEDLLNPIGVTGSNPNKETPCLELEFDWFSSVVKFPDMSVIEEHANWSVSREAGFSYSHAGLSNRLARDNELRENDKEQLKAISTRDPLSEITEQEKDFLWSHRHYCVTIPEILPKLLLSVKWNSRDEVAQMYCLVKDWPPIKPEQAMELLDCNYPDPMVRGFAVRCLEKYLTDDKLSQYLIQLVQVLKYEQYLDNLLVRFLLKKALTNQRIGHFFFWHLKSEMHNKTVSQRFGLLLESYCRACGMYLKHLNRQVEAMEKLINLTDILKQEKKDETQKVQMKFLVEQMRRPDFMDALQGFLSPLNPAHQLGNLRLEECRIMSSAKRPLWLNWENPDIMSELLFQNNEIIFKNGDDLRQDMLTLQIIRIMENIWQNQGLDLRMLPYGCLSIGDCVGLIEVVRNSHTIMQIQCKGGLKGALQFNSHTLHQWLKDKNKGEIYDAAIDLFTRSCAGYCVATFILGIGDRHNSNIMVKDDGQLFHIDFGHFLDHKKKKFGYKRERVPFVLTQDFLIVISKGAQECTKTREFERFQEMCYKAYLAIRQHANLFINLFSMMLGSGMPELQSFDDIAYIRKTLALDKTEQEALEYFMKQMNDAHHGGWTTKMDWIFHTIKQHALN
T1 sequence (P27986 whole entry partner, the tested form may be a part, canonical isoform): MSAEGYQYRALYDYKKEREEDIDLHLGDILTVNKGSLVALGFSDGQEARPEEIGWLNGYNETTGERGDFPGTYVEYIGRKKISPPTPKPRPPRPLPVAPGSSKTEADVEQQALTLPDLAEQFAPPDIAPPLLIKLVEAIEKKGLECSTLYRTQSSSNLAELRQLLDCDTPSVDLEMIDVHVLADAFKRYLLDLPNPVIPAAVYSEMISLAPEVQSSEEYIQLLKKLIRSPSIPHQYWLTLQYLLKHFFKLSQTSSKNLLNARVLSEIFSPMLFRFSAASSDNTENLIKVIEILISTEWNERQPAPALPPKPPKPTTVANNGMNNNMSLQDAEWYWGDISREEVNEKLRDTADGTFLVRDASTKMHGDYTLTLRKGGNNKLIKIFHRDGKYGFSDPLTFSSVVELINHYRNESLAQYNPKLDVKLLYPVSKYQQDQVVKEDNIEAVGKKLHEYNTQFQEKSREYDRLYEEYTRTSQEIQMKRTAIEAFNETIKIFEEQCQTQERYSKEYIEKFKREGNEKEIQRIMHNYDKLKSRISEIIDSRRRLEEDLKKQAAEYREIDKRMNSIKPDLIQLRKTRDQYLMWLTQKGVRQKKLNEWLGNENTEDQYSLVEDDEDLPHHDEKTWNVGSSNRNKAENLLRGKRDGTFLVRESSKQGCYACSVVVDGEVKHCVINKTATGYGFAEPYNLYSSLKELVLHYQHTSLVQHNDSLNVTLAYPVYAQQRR
Text: (a) In Vitro Enzyme Assay
The assay used AlphaScreen technology (Gray et al., Analytical Biochemistry, 2003, 313: 234-245) to determine the ability of test compounds to inhibit phosphorylation by recombinant Type I PI3K enzymes of the lipid PI(4,5)P2.
DNA fragments encoding human PI3K catalytic and regulatory subunits were isolated from cDNA libraries using standard molecular biology and PCR cloning techniques. The selected DNA fragments were used to generate baculovirus expression vectors. In particular, full length DNA of each of the p110α, p110β and p110δ Type Ia human PI3K p110 isoforms (EMBL Accession Nos. HSU79143, S67334, Y10055 for p110α, p110β and p110δ respectively) were sub-cloned into a pDEST10 vector (Invitrogen Limited, Fountain drive, Paisley, UK). The vector is a Gateway-adapted version of Fastbac1 containing a 6-His epitope tag. A truncated form of Type Ib human PI3K p110γ isoform corresponding to amino acid residues 144-1102 (EMBL Accession No. X8336A) and the full length human p85α regulatory subunit (EMBL Accession No. HSP13KIN) were also sub-cloned into pFastBac1 vector containing a 6-His epitope tag. The Type Ia p110 constructs were co-expressed with the p85α regulatory subunit. Following expression in the baculovirus system using standard baculovirus expression techniques, expressed proteins were purified using the His epitope tag using standard purification techniques.
DNA corresponding to amino acids 263 to 380 of human Grp1 PH domain was isolated from a cDNA library using standard molecular biology and PCR cloning techniques. The resultant DNA fragment was sub-cloned into a pGEX 4T1 E. coli expression vector containing a GST epitope tag (Amersham Pharmacia Biotech, Rainham, Essex, UK) as described by Gray et al., Analytical Biochemistry, 2003, 313: 234-245). The GST-tagged Grp1 PH domain was expressed and purified using standard techniques.
Test compounds were prepared as 10 mM stock solutions in DMSO and diluted into water as required to give a range of final assay concentrations. Aliquots (2 μl) of each compound dilution were placed into a well of a Greiner 384-well low volume (LV) white polystyrene plate (Greiner Bio-one, Brunel Way, Stonehouse, Gloucestershire, UK Catalogue No. 784075). […]
Biotinylated-DiC8-PI(3,4,5)P3 (50 nM; Cell Signals Inc., Catalogue No. 107), recombinant purified GST-Grp1 PH protein (2.5 nM) and AlphaScreen Anti-GST donor and acceptor beads (100 ng; Packard Bioscience Limited, Station Road, Pangbourne, Berkshire, UK, Catalogue No. 6760603M) were added and the assay plates were left for about 5 to 20 hours at ambient temperature in the dark. The resultant signals arising from laser light excitation at 680 nm were read using a Packard AlphaQuest instrument. […]

[1] = test system: phosphorylation of Serine 473 in Akt; test: In vitro phospho-Ser473 Akt assay, Test (b); type: cell-based; conditions: Homo sapiens, MDA-MB-468 cells, 2 hours incubation, read-out: IC50, inhibition of phosphorylation of Serine 473 in Akt
Procedure: (b) In Vitro Phospho-Ser473 Akt Assay
This assay determines the ability of test compounds to inhibit phosphorylation of Serine 473 in Akt as assessed using Acumen Explorer technology (Acumen Bioscience Limited), a plate reader that can be used to rapidly quantitate features of images generated by laser-scanning.
A MDA-MB-468 human breast adenocarcinoma cell line (LGC Promochem, Teddington, Middlesex, UK, Catalogue No. HTB-132) was routinely maintained at 37° C. with 5% CO2 up to a confluency of 70-90% in Dulbecco's modified Eagle's growth medium (DMEM; Invitrogen Limited, Paisley, UK Catalogue No. 41966-029) containing 10% heat-inactivated foetal calf serum (FCS; Sigma, Poole, Dorset, UK, Catalogue No. F0392) and 1% L-glutamine (Gibco, Catalogue No. 25030-024).
For the assay, the cells were detached from the culture flask using ‘Accutase’ (Innovative Cell Technologies Inc., San Diego, Calif., USA; Catalogue No. AT104) using standard tissue culture methods and resuspended in media to give 1.7×10^5 cells per ml. Aliquots (90 μl) were seeded into each of the inner 60 wells of a black Packard 96 well plate (PerkinElmer, Boston, Mass., USA; Catalogue No. 6005182) to give a density of ˜15000 cells per well. Aliquots (90 μl) of culture media were placed in the outer wells to prevent edge effects. The cells were incubated overnight at 37° C. with 5% CO2 to allow them to adhere.
On day 2, the cells were treated with test compounds and incubated for 2 hours at 37° C. with 5% CO2. Test compounds were prepared as 10 mM stock solutions in DMSO and serially diluted as required with growth media to give a range of concentrations that were 10-fold the required final test concentrations. Aliquots (10 μl) of each compound dilution were placed in a well (in triplicate) to give the final required concentrations. […]
All subsequent aspiration and wash steps were carried out using a Tecan 96 well plate washer (aspiration speed 10 mm/sec). […] An aliquot of PBS (50 μl) was added to each well and the plates were sealed with black plate sealers and the fluorescence signal was detected and analysed. […]

Row | IC50 (p110α Type Ia human PI3K) [µM] | IC50 [1] [µM] | Compound
1 | ~10 | ~50 | O=C(Nc1cccc(-c2nc(-c3ccc(CO)s3)cc(N3CCOCC3)n2)c1)C1CCNCC1 [Example 1, 4-(5-hydroxymethylthien-2-yl)-6-morpholino-2-(3-piperidin-4-ylcarbonylaminophenyl)pyrimidine]
2 | ~12 | ~28 | COc1ncc(-c2cc(N3CCOCC3)nc(-c3cccc(NC(C)=O)c3)n2)cn1 [Example 2, 2-(3-acetamidophenyl)-4-(2-methoxypyrimidin-5-yl)-6-morpholinopyrimidine]
3 | ~0.6 |  | O=C(Nc1cccc(-c2cc(N3CCOCC3)nc(-c3ccc(CO)o3)n2)c1)C1CCCNC1 (stereo not shown) [Example 4, 2-(5-hydroxymethylfuran-2-yl)-6-morpholino-4-(3-piperidin-3-ylcarbonylaminophenyl)pyrimidine]
4 | ~0.5 | ~1 | O=C(Nc1cccc(-c2nc(-c3ccc(CO)o3)cc(N3CCOCC3)n2)c1)C1CCNCC1 [Example 5, 4-(5-hydroxymethylfuran-2-yl)-6-morpholino-2-(3-piperidin-4-ylcarbonylaminophenyl)pyrimidine]
